Results on 2 compounds are retold here after patent publication US20240261267A1, “METHODS FOR TREATING MULTIPLE SCLEROSIS” (Vanda Pharmaceuticals Inc., priority 2021, published 2024).

The assay has as its system primary mouse OPCs. Nature of the assay: differentiation assay, quantitative PCR. It counts as cell-based. The procedure:
The effects of ponesimod, a selective S1P1 receptor agonist, and A971432, a selective S1P5 receptor agonist, on oligodendrocyte precursor cell (OPC) migration and differentiation were evaluated. Nine concentrations were tested (logarithmic dilutions ranging from 0.3 nM to 3000 nM, n=6 per concentration). Fingolimod phosphate (P-FTY720, 3000 nM, n=6) was included as a positive control, 0.1% DMSO was included (min.one/plate) as a negative control. Primary mouse OPCs were harvested on postnatal day 0 or 1 and mixed glia cultures were maintained for 14 days. Primary OPCs were then purified using the shake-off method, and used for either a migration assay, or a differentiation assay, as detailed below. To harvest primary mouse OPCs, cortices are isolated from mouse pups on postnatal day 0 or 1 and placed in ice-cold Dulbecco's Modified Eagle Medium (DMEM) (Sigma Aldrich, Overijse, BE). The cortices are homogenized and centrifuged for 5 minutes at 300 G. The supernatant is removed, and a papain solution is added for 30 minutes (125 uL DMEM solution per brain containing 20 units/ml papain and 40 μg/ml DNase, at 37 degrees). Digestion is inactivated by adding 9 ml cold DMEM. The solution is then centrifuged for 5 minutes at […]. The supernatant is carefully removed, and the pellet is resuspended in 2-5 ml culture medium (DMEM with 10% fetal calf serum (Biowest, Nuaillé, FR) and 1% pen/strep (Sigma Aldrich, Overijse, BE)). […] Cell suspension is divided over PLL (Sigma Aldrich, Overijse, BE)-coated flasks (2 brains per flask) and DMEM is added to a final volume of 10 ml. DMEM is replaced on day 4, 7, and 11. On day 7 and 11, insulin (Sigma Aldrich, Overijse, BE) is added to the medium (5μg/ml). On day 14, OPCs are separated from astrocytes by the shake-off method: flasks are placed on a shaker for 45 minutes at 75 rpm (37 degrees). The medium is then aspirated and discarded, and 10 ml fresh culture medium is added. Flasks are then returned to the shaker for 16-18 hours shaking at 280 rpm. Next, the medium is isolated, and this cell suspension is placed in a plastic petri dish and incubated for 25 minutes. The medium, which contains the OPCs, is then collected and centrifuged for 5 minutes at 300 G. Cells are then resuspended in SATO differentiation medium containing 2% horse serum, 2% B-27, 50 U/ml P/S, 2.4 μl/ml transferrin, 1.04 μl/ml L-thyroxine, 1 μl/ml putrescin, 1 μl/ml progesterone, 1 μl/ml TIT, 0.74 μl/ml sodium selenite and 0.5 μl/ml insulin (all from Sigma-Aldrich, Overijse, BE). […] After shake-off, cells are reset for their differentiation status: one hour after plating, cells are treated with platelet-derived growth factor (PDGF, 10 ng/ml, Peprotech EC Ltd, London, UK) and fibroblast growth factor (fgf, 10 ng/ml, Peprotech EC Ltd, London, UK). Twenty-four hours after plating, cells are treated again with fgf (10 ng/ml). 250,000 cells are plated onto glass coverslips in 24-well plates. Cells are treated with test compound or DMSO on day 1 (twenty-four hours after fgf treatment) and 3, and lysated on day 4. Total RNA was isolated from primary OPCs, using the RNeasy mini kit (Qiagen, Venlo, the Netherlands), according to the manufacturer's instructions. RNA concentration and quality is analyzed with a Nanodrop spectrophotometer (Isogen Life Science, Leiden, The Netherlands). RNA is reverse-transcribed using the qScript cDNA Supermix kit (Quanta, Leuven, Belgium). qPCR is performed to analyze gene expression, using the Applied Biosystems QuantStudio 3 Real-Time PCR System (Life Technologies, Gent, Belgium). The reaction mixture consists of SYBR Green master mix (Life Technologies, Carlsbad, USA), 10 μM forward and reverse primers (Integrated DNA Technologies, Leuven, Belgium), nuclease-free water and cDNA template (12.5 ng), up to a total reaction volume of 10 μl. […] All data was normalised against plate-matched negative controls.

On to `O=C(O)C1CN(Cc2ccc(OCc3ccc(Cl)c(Cl)c3)cc2)C1` [A97], for which the MOG expression result was “significant decrease” (3 nM) and “significant decrease” (300 nM). Further, the Mag gene expression result runs as follows: (3 nM) “significant decrease”; (10 nM) “significant decrease”; (30 nM) “significant decrease”; (1000 nM) “significant decrease”. For the same compound, the Mbp expression entry is recorded as “decrease” (3 nM), “decrease” (10 nM) and “decrease” (1000 nM). Moreover, the Ng2 gene expression entry runs as follows: (10 nM) “significant decrease”; (30 nM) “significant decrease”; (1000 nM) “significant decrease”. Besides, the PLP expression result runs as follows: (10 nM) “significant decrease”; (300 nM) “significant decrease”; (1000 nM) “significant decrease”. Moreover, the Mobp expression entry was “significant decrease” (30 nM), “significant decrease” (100 nM) and “significant decrease” (1000 nM). Moreover, the “expression of Ng2, Plp, Mbp, Mobp, Mog, and Mag” value (concentration series) is “significant concentration-dependent decreases”.

On to `CCC/N=C1\S/C(=C\c2ccc(OC[C@H](O)CO)c(Cl)c2)C(=O)N1c1ccccc1C` [ponesimod, (R)-5-[3-chloro-4-(2,3-dihydroxy-propoxy)-benz[Z]ylidene]-2-([Z]-propylimino)-3-o-tolyl-thiazolidin-4-one], for which the “changes at the gene expression level” value (all concentrations tested, normalised to negative controls) is “No significant changes”.
